≈ marks a conversion by molar mass, not a printed value. Calls of active or inactive are those of the source. The rule behind the calls is not given here. Some results are limits rather than exact numbers.

The target of one data set is Cytochrome P450 2C9 (Homo sapiens, UniProt P11712). The data set can be described thus: Inhibition of CYP2C9 (unknown origin) relative to control. Type of data set: ADME.
Another data set deals with Cytochrome P450 2D6 (Homo sapiens, UniProt P10635). The data set can be described thus: Inhibition of CYP2D6 (unknown origin). Type of data set: ADME.
Chain of Cytochrome P450 2D6 (P10635 whole entry): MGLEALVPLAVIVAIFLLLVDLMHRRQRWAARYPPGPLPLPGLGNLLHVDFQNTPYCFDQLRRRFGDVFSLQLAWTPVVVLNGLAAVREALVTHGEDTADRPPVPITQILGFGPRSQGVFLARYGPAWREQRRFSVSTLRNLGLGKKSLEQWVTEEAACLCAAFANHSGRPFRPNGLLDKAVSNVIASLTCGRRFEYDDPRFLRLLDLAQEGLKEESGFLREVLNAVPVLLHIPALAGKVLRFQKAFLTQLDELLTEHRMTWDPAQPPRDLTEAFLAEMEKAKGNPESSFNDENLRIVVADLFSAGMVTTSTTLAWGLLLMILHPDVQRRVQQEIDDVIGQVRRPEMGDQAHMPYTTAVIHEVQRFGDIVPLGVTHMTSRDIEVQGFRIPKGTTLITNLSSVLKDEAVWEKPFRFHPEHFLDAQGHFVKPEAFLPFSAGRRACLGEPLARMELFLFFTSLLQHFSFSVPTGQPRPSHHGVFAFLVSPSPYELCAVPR
The target in the next data set is Cytochrome P450 3A4 (Homo sapiens, UniProt P08684). The data set is described as follows: Inhibition of CYP3A4 (unknown origin) relative to control. Type of data set: ADME.
Chain of Cytochrome P450 3A4 (P08684 whole entry): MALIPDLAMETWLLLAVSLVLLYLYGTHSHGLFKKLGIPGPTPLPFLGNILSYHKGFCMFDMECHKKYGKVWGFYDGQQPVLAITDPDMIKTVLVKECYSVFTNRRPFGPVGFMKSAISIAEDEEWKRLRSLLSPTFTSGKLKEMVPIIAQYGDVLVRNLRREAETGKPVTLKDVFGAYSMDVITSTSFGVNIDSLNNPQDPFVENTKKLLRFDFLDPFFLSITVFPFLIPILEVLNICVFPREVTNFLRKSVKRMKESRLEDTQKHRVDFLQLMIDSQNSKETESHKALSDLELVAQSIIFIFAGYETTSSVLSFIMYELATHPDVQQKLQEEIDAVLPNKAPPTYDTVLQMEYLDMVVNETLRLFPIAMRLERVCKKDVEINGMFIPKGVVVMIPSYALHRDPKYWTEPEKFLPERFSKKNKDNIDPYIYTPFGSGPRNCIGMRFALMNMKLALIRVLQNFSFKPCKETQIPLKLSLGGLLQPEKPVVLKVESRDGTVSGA
Data set [1] deals with Cryptococcus neoformans. The data set can be described thus: Antifungal activity against Cryptococcus neoformans H99 assessed as reduction in fungal growth incubated for 72 hrs by CLSI based broth microdilution method. The format is functional.
For data set [2], the system named is Candida albicans. The data set can be described thus: Antifungal activity against Candida albicans ATCC SC5314 assessed as reduction in fungal growth incubated for 48 hrs by CLSI based broth microdilution method. The format is functional.
Data set [3] has as its system Nakaseomyces glabratus. The data set is described as follows: Antifungal activity against Candida glabrata BG2 assessed as reduction in fungal growth incubated for 48 hrs by CLSI based broth microdilution method. The format is functional.
Another data set concerns Aspergillus fumigatus. The data set is described as follows: Antifungal activity against Aspergillus fumigatus AF293 assessed as reduction in fungal growth incubated for 48 hrs by CLSI based broth microdilution method. Type of data set: functional.
The subject of data set [4] is Cryptococcus neoformans. The data set can be described thus: Fungicidal activity against Cryptococcus neoformans H99 at 8 times of MIC after 24 hrs by time-kill kinetics assay. Type of data set: functional, organism-based.
The test system of data set [5] is Candida albicans. The data set is described as follows: Induction of drug resistance in Candida albicans ATCC SC5314 assessed as increase in EZC IC50 at 8 time IC50 after 7 days. Type of data set: functional, organism-based. Particulars: time 7.0 day.
In data set [6] the test system is Nakaseomyces glabratus. The data set is described as follows: Induction of drug resistance in Candida glabrata BG2 assessed as increase in ECZ IC50 at 8 times IC50 after 4 days. The format is functional, organism-based. Particulars: BG2, 96 h.
In data set [7] the test system is Candida albicans. The data set is described as follows: Induction of drug resistance in Candida albicans ATCC SC5314 assessed as increase in EZC IC50 at 8 time IC50 after 35 days. The format is functional, organism-based. Conditions: time 35.0 day.
The subject of data set [8] is Candida albicans. The data set is described as follows: Induction of drug resistant in Candida albicans ATCC SC5314 assessed as increase in EZC IC50 at 16 times IC50. The format is functional, organism-based.
The test system of data set [9] is Nakaseomyces glabratus. The data set is described as follows: Induction of drug resistant in Candida glabrata BG2 assessed as increase in EZC IC50 at 16 times IC50. The format is functional, organism-based.
The test system of data set [10] is Trichophyton rubrum. The data set can be described thus: Ex vivo antifungal activity against Trichophyton rubrum KCCM60450 infected in human nail assessed as reduction in ATP level at 10 % w/w after 24 hrs. The format is functional. Set-up: scale not given: the % may be the effect or the level left.
Data set [11] has as its system Cryptococcus neoformans. The data set can be described thus: Fungicidal activity against Cryptococcus neoformans H99 at 8 times of MIC after 12 hrs by time-kill kinetics assay. The format is functional, organism-based.
Data set [12] in a line: Stability in human liver microsomes assessed as parent compound remaining after 30 mins. Conditions: read-out: Stability. Type of data set: ADME, Microsome.
A short description of data set [13]: Stability in rat liver microsomes assessed as parent compound remaining after 30 mins. Type of data set: ADME, Microsome. Conditions: microsomes, 0.5 h.
Data set [14] in a line: Stability in mouse liver microsomes assessed as parent compound remaining after 30 mins. Type of data set: ADME, Microsome. Particulars: microsomes, 0.5 h.
The nature of data set [15]: Stability in human plasma assessed as parent compound remaining after 30 to 120 mins. Type of data set: ADME, cell-free. Conditions: time 30-120 min.
Data set [16] is described as follows: Stability in rat plasma assessed as parent compound remaining after 30 to 120 mins. Type of data set: ADME, cell-free. Particulars: time 30-120 min.
Data set [17] relates to Candida albicans. The data set can be described thus: Induction of drug resistance in Candida albicans ATCC SC5314 assessed as increase in FCZ IC50 at 8 times IC50 measured after 5 to 22 days. Type of data set: functional, organism-based.
Data set [18] concerns Nakaseomyces glabratus. The data set can be described thus: Induction of drug resistance in Candida glabrata BG2 assessed as increase in FCZ IC50 at 8 times IC50 after 23 days. Conditions: BG2, 552 h. The format is functional, organism-based.
Data set [19] has as its system Candida albicans. The data set is described as follows: Induction of drug resistant in Candida albicans ATCC SC5314 assessed as increase in FCZ IC50 at 16 times IC50. The format is functional, organism-based.
The subject of data set [20] is Nakaseomyces glabratus. The data set can be described thus: Induction of drug resistant in Candida glabrata BG2 assessed as increase in FCZ IC50 at 16 times IC50. The format is functional, organism-based.
For the next data set, the target named is CYP3A4 (Homo sapiens, UniProt P08684). The data set is described as follows: Inhibition of CYP3A4 (unknown origin) at 10 uM relative to control. The format is ADME.
Chain of CYP3A4 (P08684 whole entry): as above
For the next data set, the target named is CYP2C19 (Homo sapiens, UniProt P33261). The data set is described as follows: Inhibition of CYP2C19 (unknown origin) at 10 uM relative to control. The format is ADME.
Chain of CYP2C19 (P33261 whole entry): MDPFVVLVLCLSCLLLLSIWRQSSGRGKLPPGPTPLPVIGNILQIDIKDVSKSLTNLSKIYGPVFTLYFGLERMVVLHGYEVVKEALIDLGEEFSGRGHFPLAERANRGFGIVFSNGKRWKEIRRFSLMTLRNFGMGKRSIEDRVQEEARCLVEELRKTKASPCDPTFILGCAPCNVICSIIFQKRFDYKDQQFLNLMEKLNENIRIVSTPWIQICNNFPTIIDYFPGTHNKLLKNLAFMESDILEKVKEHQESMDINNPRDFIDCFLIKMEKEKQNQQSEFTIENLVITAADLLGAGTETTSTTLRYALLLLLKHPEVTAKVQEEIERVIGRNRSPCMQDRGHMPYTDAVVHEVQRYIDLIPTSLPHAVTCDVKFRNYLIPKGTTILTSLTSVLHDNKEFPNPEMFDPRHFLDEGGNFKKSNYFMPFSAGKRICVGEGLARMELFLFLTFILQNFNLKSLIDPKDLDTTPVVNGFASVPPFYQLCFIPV
The next data set addresses CYP2D6 (Homo sapiens, UniProt P10635). The data set can be described thus: Inhibition of CYP2D6 (unknown origin) at 10 uM relative to control. Type of data set: ADME.
In data set [21] the test system is Trichophyton rubrum. The data set can be described thus: Fungicidal activity against Trichophyton rubrum KCCM60450 at 8 times after 24 hrs by time-kill kinetics assay. The format is functional, organism-based.
The subject of data set [22] is Trichophyton mentagrophytes. The data set is described as follows: Fungicidal activity against Trichophyton mentagrophytes KCCM60449 at 8 times after 24 hrs by time-kill kinetics assay. The format is functional, organism-based.

Chain of Cytochrome P450 2C9 (P11712 whole entry): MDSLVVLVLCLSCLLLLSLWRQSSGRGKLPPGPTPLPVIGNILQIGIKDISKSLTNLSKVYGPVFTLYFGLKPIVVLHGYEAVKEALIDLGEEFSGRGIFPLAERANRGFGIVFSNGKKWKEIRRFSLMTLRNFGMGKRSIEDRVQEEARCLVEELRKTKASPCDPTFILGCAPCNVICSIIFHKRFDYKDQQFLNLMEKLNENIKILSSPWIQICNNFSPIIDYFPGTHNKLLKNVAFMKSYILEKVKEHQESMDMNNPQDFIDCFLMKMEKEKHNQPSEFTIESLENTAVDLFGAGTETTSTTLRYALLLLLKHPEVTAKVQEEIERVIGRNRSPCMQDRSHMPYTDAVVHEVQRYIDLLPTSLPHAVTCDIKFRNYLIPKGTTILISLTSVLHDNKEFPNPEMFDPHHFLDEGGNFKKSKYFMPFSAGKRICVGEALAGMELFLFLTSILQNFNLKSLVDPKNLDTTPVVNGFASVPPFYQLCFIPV
Chain of CYP2D6 (P10635 whole entry): as the sequence (P10635 whole entry) above

As for `CCCC(NC)C(=O)NCCc1ccc(-c2ccc(C(F)(F)F)cc2)cc1.Cl` (racemic), the “inhibition (INH)” value is “Not Active” at Cytochrome P450 2C9, “Active” against Cytochrome P450 2D6 and “Not Active” at Cytochrome P450 3A4. In addition, the minimal inhibitory concentration (MIC) in the data set with Cryptococcus neoformans [1] is 16 µg/mL; with Candida albicans [2], 32 µg/mL; in the data set on Nakaseomyces glabratus [3] it was 32 µg/mL; in the data set with Aspergillus fumigatus it was 32 µg/mL.

Turning to `C=C1CCN([C@H](C)[C@](O)(Cn2cncn2)c2ccc(F)cc2F)CC1` [EFINACONAZOLE], in the data set on Cryptococcus neoformans [4], the outcome was inactive. The result with Candida albicans [5], in the data set with Candida albicans [7], with Candida albicans [8] and in the data set with Nakaseomyces glabratus [9] was Active. Moreover, the IC50 with Nakaseomyces glabratus [6] was 1 µg/mL (≈ 2.87 µM). In addition, the Activity in the data set on Trichophyton rubrum [10] is reported as 31.9%.

For `C[C@@H]1[C@H](O)[C@@H](C)/C=C/C=C/C=C/C=C/C=C/C=C/C=C/[C@H](O[C@@H]2O[C@H](C)[C@@H](O)[C@H](N)[C@@H]2O)C[C@@H]2O[C@](O)(C[C@@H](O)C[C@@H](O)[C@H](O)CC[C@@H](O)C[C@@H](O)CC(=O)O[C@H]1C)C[C@H](O)[C@H]2C(=O)O` [AMPHOTERICIN B], the MIC with Cryptococcus neoformans [1] came out at 0.25 µg/mL (≈ 0.271 µM); in the data set on Candida albicans [2], 0.25 µg/mL (≈ 0.271 µM); in the data set on Nakaseomyces glabratus [3], 0.5 µg/mL (≈ 0.541 µM); with Aspergillus fumigatus, 1 µg/mL (≈ 1.08 µM). In addition, the result in the data set on Cryptococcus neoformans [11] was Active.

Turning to `CCCC(NC)C(=O)NCCc1ccc(-c2ccc(Cl)c(Cl)c2)cc1.Cl` (racemic), the MIC with Cryptococcus neoformans [1] is 4 µg/mL; in the data set on Candida albicans [2] it was 16 µg/mL; in the data set with Nakaseomyces glabratus [3] it was 16 µg/mL; with Aspergillus fumigatus, 8 µg/mL. The remaining at 0.5 h in [12] was > 85%. For the same compound, the Stability entry in data set [13] was “Unstable”; in data set [14], “Unstable”; in data set [15], > 95%; in data set [16], > 95%.

`OC(Cn1cncn1)(Cn1cncn1)c1ccc(F)cc1F` [FLUCONAZOLE]: the result in the data set on Cryptococcus neoformans [4] was inactive. Further, the IC50 in the data set with Candida albicans [17] and with Nakaseomyces glabratus [18] was 64 µg/mL (≈ 209 µM) in each case. For the same compound, the result in the data set with Candida albicans [19] and with Nakaseomyces glabratus [20] was Active.

On to `CCCCC(N)C(=O)NCCc1ccc(-c2ccc(Cl)c(Cl)c2)cc1.Cl` (racemic), for which the MIC came to 1 µg/mL in the data set with Cryptococcus neoformans [1], 2 µg/mL in the data set with Candida albicans [2], 4 µg/mL in the data set with Nakaseomyces glabratus [3] and 4 µg/mL with Aspergillus fumigatus. Moreover, the inhibition at 10 µM against CYP3A4, on CYP2C19 and on CYP2D6 was > 70% each time. Also, the remaining at 0.5 h in [12] is > 85%.

In the case of `Cc1cc(C2CCCCC2)n(O)c(=O)c1` [CICLOPIROX], the result (in the data set on Trichophyton rubrum [21]; in data set [22]) was inactive. The Activity in the data set on Trichophyton rubrum [10] stood at 24.21%.

Source of the values: ChEMBL document CHEMBL5030558, “Optimization and Evaluation of Novel Antifungal Agents for the Treatment of Fungal Infection” (J Med Chem, 2021).
